Experimental findings from patent US12565467B2, “Compounds, compositions, and methods for the treatment of inflammatory, degenerative, and neurodegenerative diseases” (Board of Supervisors of Louisiana State University and …, priority 2015, dated 2026) are described below.

Test [1] concerns human retinal pigment epithelial (RPE) cells deficient in 15-LOX-D1. Kind of test: Oxidative stress (OS) induced apoptosis / cell death in 15-LOX-1-deficient human RPE cells. Type of test: cell-based.
Description: (§1) FIG. 4. (A) Cytoprotective effects of NPD1 like compounds on OS induced apoptosis. The results shown in this figure compare the cytoprotective capacities of long chain polyunsaturated fatty acids (VLC-PUFA), elovanoids ELV1 and ELV2, and neuroprotectin D1 (NPD1) in human retinal pigment epithelial (RPE) cells deficient in 15-LOX-D1 by measuring the protection of cell deaths induced by oxidative stress (OS) by these compounds. […] (B) Elovanoid precursors protect human retinal pigment epithelial cells deficient in 15-LOX-1, unlike DHA, from oxidative stress conditions.
FIG. 5. (A) Effect of PD146176 on VLC-PUFA-inhibited apoptosis induced by OS in ARPE-19 cells. […] It is evident that 32:6 and 34:6 LCAF were able to induce a substantial amount (55 and 48% respectively) of neuroprotection compared to PD 146176 (22%) when the stressed cells were treated with 5 μm of 15-LOX-D1 inhibitor. It can be concluded that since PD146176 is the inhibitor of 15-lipooxygenase enzyme, it might be protecting the stressed RPE cells by accumulating neuroprotective agents inside the cells. (B) Comparison of cytoprotective capacities of NPD1, C32:6 and C34:6 VLC-PUFA on oxidative stress-induced apoptosis in 15-LOX-1 cells. Shown here is the comparison of neuroprotection in a 15-LOX-1-deficient cell line under oxidative stress with 32:6 and 34:6 VLC-PUFA along with NPD1. 32:6 and 34:6 LCAF were able to induce neuroprotection (45% and 40% respectively), as compared to oxidative stress (90%) under this condition. (C) Concentration dependent cytoprotection by C32:6 and C34:6 VLC-PUFA in oxidative-stress induced ARPE-19 cells. A concentration (50-500 nM) kinetic of cytoprotection induced by LCAF 32:6 and 34:6 in RPE cell culture under OS was shown here. […] We decided to use 250 nM concentrations of 32:6 and 34:6 LCAF in subsequent experiments. (D) Selected images of alive and dead cells from this study (control, OS, treatment with C32:6).
as §1, with “Evidence of cytoprotection by 32.6 and 34.6 VLC-PUFA in oxidative-stress induced ARPE-19 cells as detailed in (FIG. 4): (A) Cytoprotective” for “FIG. 4. (A) Cytoprotective”, “capacities of very long chain” for “capacities of long chain”
FIG. 5—(A) Effect of PD146176 on VLC-PUFA inhibited apoptosis induced by OS in ARPE-19 cells. […] It is evident that 32:6 and 34:6 LCAF were able to induce a substantial amount (55 and 48% respectively) of neuroprotection compared to PD 146176 (22%) when the stressed cells were treated with 5 μm of 15-LOX-D1 inhibitor. It can be concluded that since PD146176 is the inhibitor of 15-lipooxygenase enzyme, it might be protecting the stressed RPE cells by accumulating neuroprotective agents inside the cells. (B) Comparison of cytoprotective capacities of NPD1, C32:6 and C34:6 VLC-PUFA on oxidative stress-induced apoptosis in 15-LOX-1 cells. Shown here is the comparison of neuroprotection in a 15-LOX-1-deficient cell line under oxidative stress with 32:6 and 34:6 VLC-PUFA along with NPD1. 32:6 and 34:6 VLC-PUFA were able to induce neuroprotection (45% and 40% respectively), as compared to oxidative stress (90%) under this condition. (C) Concentration dependent cytoprotection by C32:6 and C34:6 VLC-PUFA in oxidative-stress induced ARPE-19 cells. A concentration (50-500 nM) kinetic of cytoprotection induced by VLC-PUFA 32:6 and 34:6 in RPE cell culture under OS was shown here. […] We decided to use 250 nM concentrations of 32:6 and 34:6 VLC-PUFA in subsequent experiments. […]

In another test the test system is Bcl-xL. In words: Bcl-xL protein in ARPE-19 cells under oxidative stress. Type of test: cell-based, human. The settings on record: ARPE-19 cells under OS. As to the method: (§2) FIG. 8. (A) Bcl-xL-upregulation by elovanoids ELV1 and ELV2 in ARPE-19 cells under stress. Bcl-xL is the antiapoptotic Bcl2 family protein. Like proapoptotic proteins Bid and Bim, the effect of elovaniod precursors on the antiapoptotic protein Bcl-xL was tested in this figure in RPE cells under OS. […] (B) Effect of NPD1, ELV1 and ELV2 on Bax expression in LOX-D cells under stress. Proapoptotic Bax was tested in this figure. […] C) VLC-PUFA and elovanoids ELV1 and ELV2 mediated effect on Bax upregulation in ARPE-19 cells under stress. In this experiment, elovanoid precursors along with VLC-PUFA were tested on the downregulation of the Bax protein in RPE cells under stress.
as §2, with “8—(A)” for “8. (A)”

For the compound `CC/C=C\C/C=C\C/C=C\C/C=C\C/C=C\C/C=C\CCCCCCCCCCCCCCC(=O)O` [C34:6], the “neuroprotection (FIG. 5B)” value in test [1] (15-LOX-1-deficient cell line under oxidative stress, compared to oxidative stress (90%)) amounted to 40%. Moreover, the “protection against cell death under oxidative stress conditions (FIG. 4B)” value in test [1] (15-LOX-D1 cells under oxidative stress) is “protect against cell death”.
As for `CC/C=C\C[C@H](O)\C=C/C=C/C=C/[C@H](O)C/C=C\C/C=C\CCCCCCCCCCCCCCC(=O)O` [ELV2, (16Z,19Z,22R,23E,25E,27Z,29S,31Z)-22,29-dihydroxytetratriaconta-16,19,23,25,27,31-hexaenoic acid], the “effect on antiapoptotic Bcl-xL protein (FIG. 8A)” value in the test on Bcl-xL is “potent upregulation”. For the same compound, the “activity against OS relative to the related VLC-PUFA (FIG. 4)” value in test [1] (as sodium salts or methyl esters) is “more potent activity against OS than the related VLC-PUFA”.
